Laboratory results published in patent US12594292B2, “Antiviral prodrugs, intermediate-and long-acting formulations and methods” (priority 2022, dated 2026).
Where two headings read alike, the source gives them in different places.

Columns and labels:
[1] = test system: USA WA-01 strain of SARS CoV-2; assay: Anti-coronavirus activity in Vero E6 cells, qPCR of spike RNA (Example 2); assay type: cell-based
Experimental: (§1) Ten thousand Vero E6 cells were seeded in 100 microliters of culture medium in 96 well plates. The following day serial two-fold dilutions of antiviral compounds or the DMSO-containing vehicle were added to each well. The USA WA-01 strain of SARS CoV-2 was added to each well at a multiplicity of infection of 0.1 thirty minutes later. Cells were incubated for 48 hours, washed twice in PBS and lysed with TRIzol. RNA was extracted using Directzol micro RNA columns. RNA was made into cDNA and assayed for the SARS CoV-2 spike protein and for a housekeeping gene (RPLPO) RNA by qPCR. Data represents the average of duplicate wells. Cellular cytotoxicity was also measured in VERO E6 cells. […] Cytotoxicity (CC50) was assessed using a commercially available MTT assay.

VERO E6 cells [2] = assay: Cellular cytotoxicity in Vero E6 cells, MTT assay (Example 2); assay type: cell-based
Experimental: as §1

[3] = test system: SARS-CoV-2 isolate USA-WA1/2020; assay: SARS-CoV-2 infection in Vero E6 cells, qRT-PCR of Spike RNA (Example 3); assay type: cell-based
VERO E6 cells [4] = assay: CellTiter-Glo luminescent cell viability assay, Vero E6 (Example 3); assay type: cell-based
Experimental: CellTiter-glo luminescent cell viability assay: Approximately 10^4 Vero E6 cells per well were seeded in opaque walled 96 well cell culture plates and incubated overnight. Compounds or controls were added at the indicated concentrations. […] Viability was calculated compared to untreated controls and CC50 values were calculated using Prism 8.
Determination of Cytotoxicity: The 50% cytotoxic concentrations (CC50) were determined with Cell Titer Glo (Cat. #G7570, Promega, Madison, WI) according to the manufacturer's instructions. The calculated CC50 values are shown in the foregoing table.
Relative viability was measured by CellTiter-Glo luminescent cell viability assay, as depicted at FIG. 2.

HCoV-229E = assay type: cell-based, human Coronavirus 229E
Huh7.5 cells [5] = assay: Cytotoxicity in Huh7.5 cells, nuclei count (Example 6); assay type: cell-based, human
[6] = test system: SARS-CoV-2 isolate USA-WA1/2020; assay: SARS-CoV-2 infection in Vero E6 cells, qRT-PCR (Example 7); assay type: cell-based
[7] = test system: SARS-CoV-2 isolate USA-WA1/2020; assay: SARS-CoV-2 infection in PSC-human lung cells, qRT-PCR (Example 7); assay type: cell-based; conditions: PSC-human lung cells, MOI 0.01, 48 hours
[8] = test system: SARS-CoV-2 isolate USA-WA1/2020; assay: SARS-CoV-2 infection in Huh7.5 cells, qRT-PCR (Example 7); assay type: cell-based
Huh7.5 cells [9] = assay: Cell viability assay CellTiter-Glo, Huh7.5 cells (Example 7)
VERO E6 cells [10] = assay: Cell viability assay CellTiter-Glo, Vero E6 cells (Example 7)
human PBMCs = assay: Cytotoxicity (CC50) in human PBMCs; assay type: cell-based; conditions: read-out: CC50
HIV-1 [11] = conditions: for EC50: HIV infected human PBMCs
Experimental: (§2) Antiviral activities were determined in HIV infected human PBMCs.

[12] = Cytotoxicity (CC50) in human PBMCs; assay type: cell-based; conditions: human PBMCs
HIV-1 [13] = assay: microbe, parasite or virus in culture; conditions: Human immunodeficiency virus 1, PBMC
Experimental: as §2

HFF cells = assay: Persistence of TFVpp in HFF cells after a 3 day exposure; conditions: HFF cells, 1 micromolar drug for 3 days
Text: HFF cells were exposed to 1 micromolar drug for 3 days. At days 0, 1, 2, 4, 7, 14, 21, and 28, cells were trypsinized, counted, and processed for LC/MS measurement of TFVpp. Data were expressed at ftg/cell. nm=not meaningful; ftg—gemtogram.

SARS-CoV-2 [14] = assay: SARS-CoV-2 infection assay in Huh7.5 cells, nucleocapsid immunofluorescence (Example 6); assay type: cell-based; conditions: MOI 0.1, 48 hours
SARS-CoV-2 [15] = assay: SARS-CoV-2 infection assay in TMPRSS2-Vero cells, nucleocapsid immunofluorescence (Example 6); assay type: cell-based; conditions: MOI 0.01, 32 hours
TMPRSS2-Vero cells = assay: Cytotoxicity in TMPRSS2-Vero cells, nuclei count (Example 6); assay type: cell-based; conditions: TMPRSS2-Vero cells; read-out: CC50
SRV A2 strain of RSV = assay: RSV infection in Hep-2 cells, CPE reduction; assay type: cell-based, respiratory syncytial virus; conditions: RSV A2 in Hep-2 cells, 72 to 96 hours
Experimental: Methods: The SRV A2 strain of RSV was obtained from the ATCC. Ten thousand Hep-2 cells were seeded into each well of a 96-well plate in EMEM with 10% fetal bovine serum and 1% penicillin and streptomycin. Each well was inoculated with 100 TCID50 of virus. Two hours later wells were washed once with medium and serial four-fold dilutions of candidate antiviral drugs were added.

Hep-2 cells = assay: Cell viability assay for the RSV table (CC50); assay type: cell-based; conditions: Hep-2 cells; read-out: CC50
Calu-3 cells = assay: Cytotoxicity in Calu-3 cells, nuclei count or CellTiter-Glo (Example 6); conditions: for select compounds up to 100 μM by CellTiter-Glo
Experimental: After which an equal volume of CellTiter-Glo reagent (Cat. #G7570, Promega, Madison, WI) was added, mixed and luminescence recorded on a Veritas Microplate Luminometer (Turner BioSystems) according to manufacturer recommendations.

SARS-CoV-2 [16] = assay: SARS-CoV-2 infection assay in Calu-3 cells, nucleocapsid immunofluorescence (Example 6); conditions: MOI 0.01, 44 hour
[17] = Vero E6 cells, MOI 0.1, 48 hours
[18] = Vero E6 cells, MOI 0.01, 48 hours, mean±SD
[19] = Vero E6 cells, MOI 0.01, 48 hours
[20] = Huh7.5 cells, MOI 0.01, 48 hours, qRT-PCR (Example 7)
[21] = variation of the diester substituent of ODE-TFV

CCCCCCCCCCCCCCCCOCCCOP(=O)(O)OC[C@H]1O[C@@](C#N)(c2ccc3c(N)ncnn23)[C@H](O)[C@@H]1O [Compound 4b, 3-(Hexadecyloxy)propyl-phospho-RVn]
Selectivity Index ([1]; CC50/EC50, Vero E6): 25.0
times more active than remdesivir ([1]; USA WA-1 strain, Vero E6 cells): 3.3
EC50 [1, 17]: 840 nM
EC90 [1, 17]: 1580 nM
CC50 (VERO E6 cells [2]): 21000 nM
Selectivity ([3]; CC50/EC50, Vero E6): 52
EC50 [3, 18]: 960 ± 170 nM
EC90 [3, 18]: 2100 ± 780 nM
CC50 (VERO E6 cells [4]): 51000 nM
EC50 (HCoV-229E): 3020 ± 360 nM
EC90 (HCoV-229E): 6600 ± 1140 nM
CC50 (Huh7.5 cells [5]): > 20000 nM
Selectivity ([6]; CC50/EC50, Vero E6 cells): >158
EC50 [6, 19]: 630 nM
EC90 [6, 19]: 730 nM
EC50 [7]: 350 nM
EC90 [7]: 940 nM
Selectivity ([8]; CC50/EC50, Huh7.5 cells): >526
EC50 [8, 20]: 190 nM
EC90 [8, 20]: 400 nM
EC50 ([8]; Huh7.5 cells, MOI 0.01, 48 hours, qRT-PCR (Example 7), listed as HDP-P-RVn): 190 nM
CC50 (MRC-5 cells): 32100 ± 17900 nM
CC50 (Huh7.5 cells [9]): > 100000 nM
CC50 (VERO E6 cells [10]): > 100000 nM

CCCCCCCCCCCCCCCCCCOCCOP(=O)(CO[C@H](C)Cn1cnc2c(N)ncnc21)OCc1cccc(C)c1 (stereo partly drawn) [3-methyl benzyl]
CC50 (human PBMCs; [21]): 3860 nM
Selectivity Index (HIV-1 [11]; [21]): 1210
EC50 (HIV-1 [11]; [21]): 3.2 nM

CCCCCCCCCCCCCCCCCCOCCOP(=O)(CO[C@H](C)Cn1cnc2c(N)ncnc21)OCc1ccccc1 (stereo partly drawn) [ODE-Bn-TFV, Octadecyloxyethyl benzyl tenofovir]
CC50 [12]: 8720 nM
Selectivity Index (HIV-1 [11]; CC50/EC50): 5130
EC50 (HIV-1 [13]): 1.7 ± 1.5 nM

CCCCCCCCCCCCCCCCCCOCCOP(=O)(O)CO[C@H](C)Cn1cnc2c(N)nc(N)nc21 [ODE-PMPDAP]
CC50 (human PBMCs; human PBMCs): 7000 ± 7100 nM
Selectivity Index (HIV-1 [11]; CC50/EC50): 77,700
EC50 (HIV-1 [11]): 0.09 ± 0.05 nM

CCCCCCCCCCCCCCCCCCOCCOP(=O)(O)OC[C@H]1O[C@@H](n2cc(F)c(N)nc2=O)CS1 [ODE-P-Emtricitabine, Octadecyloxyethyl-phospho-emtricitabine]
CC50 [12]: 35600 ± 12900 nM
Selectivity Index (HIV-1 [11]; CC50/EC50): 3708
EC50 (HIV-1 [13]): 9.6 ± 3.1 nM

CCCCCCCCCCCCCCCCCCOCCOP(=O)(CO[C@H](C)Cn1cnc2c(N)ncnc21)OCC (stereo partly drawn) [ODE-Et-TFV]
CC50 (human PBMCs; [21]): 5360 nM
Cmax of TFVpp (HFF cells): 0.91 ftg/cell
Tmax of TFVpp (HFF cells): 0 h
Selectivity Index (HIV-1 [11]; [21]): 95
EC50 (HIV-1 [11]; [21]): 57 nM

CCCCCCCCCCCCCCCCCCOC[C@H](COP(=O)(O)OC[C@H]1O[C@@](C#N)(c2ccc3c(N)ncnn23)[C@H](O)[C@@H]1O)OCc1ccc(OC)c(F)c1 [Compound 15j, 1-O-Octadecyl-2-O-(3-fluoro-4-methoxy-benzyl)-sn-glyceryl-phospho-RVn]
EC50 (HCoV-229E): 74 ± 10 nM
EC90 (HCoV-229E): 170 ± 14 nM
EC50 (SARS-CoV-2 [14]): 56 nM
EC90 (SARS-CoV-2 [14]): 222 nM
CC50 (Huh7.5 cells [5]; Huh7.5 cells, read-out: CC50): > 20000 nM
EC50 (SARS-CoV-2 [15]): 174 nM
EC90 (SARS-CoV-2 [15]): 341 nM
CC50 (TMPRSS2-Vero cells): > 20000 nM
EC50 (SRV A2 strain of RSV): 10 nM
EC90 (SRV A2 strain of RSV): 19 nM
CC50 (Hep-2 cells): 9600 nM
CC50 (MRC-5 cells): > 50000 nM
CC50 (Calu-3 cells): 50600 ± 5420 nM

CCCCCCCCCCCCCCCCOC[C@H](COP(=O)(O)OC[C@H]1O[C@@](C#N)(c2ccc3c(N)ncnn23)[C@H](O)[C@@H]1O)OCc1ccc(OC)c(F)c1 [Compound 15c, 1-O-Hexadecyl-2-O-(3-fluoro, 4-methoxybenzyl)-sn-glyceryl-phospho-RVn]
EC50 (HCoV-229E): 360 ± 54 nM
EC90 (HCoV-229E): 1120 ± 100 nM
EC50 (SARS-CoV-2 [14]): 49 nM
EC90 (SARS-CoV-2 [14]): 113 nM
CC50 (Huh7.5 cells [5]; Huh7.5 cells, read-out: CC50): > 20000 nM
EC50 (SARS-CoV-2 [15]): 397 nM
EC90 (SARS-CoV-2 [15]): 869 nM
CC50 (TMPRSS2-Vero cells): > 20000 nM
EC50 (SRV A2 strain of RSV): 34 nM
EC90 (SRV A2 strain of RSV): 68 nM
CC50 (Hep-2 cells): 20600 nM
CC50 (MRC-5 cells): > 50000 nM
CC50 (Calu-3 cells): 75600 ± 3960 nM
EC50 (SARS-CoV-2 [16]): 51 ± 6 nM
EC90 (SARS-CoV-2 [16]): 221 ± 58 nM
